The text below walks through data of patent publication US20250275991A1, “ORAL COMPLEMENT FACTOR D INHIBITORS” (BioCryst Pharmaceuticals, Inc, priority 2019, published 2025).

Factor D, sequence (P00746 26-253): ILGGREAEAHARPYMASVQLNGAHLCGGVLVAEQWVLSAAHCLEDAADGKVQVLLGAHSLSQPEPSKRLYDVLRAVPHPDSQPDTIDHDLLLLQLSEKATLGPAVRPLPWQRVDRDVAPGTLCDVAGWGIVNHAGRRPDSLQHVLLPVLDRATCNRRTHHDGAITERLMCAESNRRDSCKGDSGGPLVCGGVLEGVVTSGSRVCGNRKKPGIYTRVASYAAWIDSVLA

In this experiment the target is Factor D (Homo sapiens, UniProt P00746). Nature of the experiment: Factor D esterolytic assay. Format: biochemical. To be noted: substrate Z-Lys-SBzl 1.29 mM, 100 mM HEPES, 500 mM NaCl, pH 7.5, 10% DMSO, tested a minimum of three times. The essentials:
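Human Factor D esterolytic assay in 100 mM HEPES, 500 mM NaCl, pH 7.5, 10% DMSO, with 1.29 mM Z-Lys-SBzl substrate. Released thiol detected with DTNB at 405 nm over 600 s, minus 690 nm background. Substrate added immediately or after room-temperature preincubation with compound. IC50 from percent inhibition relative to enzyme alone; ≥3 tests.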
For the compound `NCc1cccc(-c2cc(COc3ccccc3CC(=O)O)cc3c(F)coc23)c1` [Compound 44d, 2-(2-((7-(3-(aminomethyl)phenyl)-3-fluorobenzofuran-5-yl)methoxy)phenyl)acetic acid], the IC50 (as a rule, the midpoint of a concentration-inhibition curve) is less than 1 µM. As for `CC(N)c1cc(-c2cc(COc3ccccc3CC(=O)O)cc3ccoc23)cs1` (stereo not drawn) [Compound 4c, 2-(2-((7-(5-(1-aminoethyl)thiophen-3-yl)benzofuran-5-yl)methoxy)phenyl)acetic acid], the IC50 was more than 10 µM. On to `CC(C)OC(=O)NCc1ccc(CC(=O)O)c(OCc2cc(-c3cccc(CN)c3)c3occc3c2)c1` [Compound 27c, 2-(2-((7-(3-(aminomethyl)phenyl)benzofuran-5-yl)methoxy)-4-((isopropoxycarbonylamino)methyl)phenyl)acetic acid], for which the IC50 was less than 1 µM.
